From patent publication US12065436B2, “Cardiac sarcomere inhibitors” (Cytokinetics, Inc., priority 2018, dated 2024)
pIC50: −log10 of the molar value.

Molecular target: bovine cardiac myofibrils (full-length cardiac myosin ATPase in the native sarcomere) (Bos taurus (Bovine), UniProt Q9BE39)
Assay: Skinned bovine cardiac myofibril ATPase assay (PK/LDH-coupled)
Type: biochemical
Details: Ca2+ activating to 75% of maximal rate; for CDMF75 IC15: concentration giving 15% inhibition; for pIC50: read-out: CDMF75 IC50
In short: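 Triton-skinned bovine left-ventricle myofibrils (1 mg/mL) in PM 12 buffer (12 mM PIPES, 2 mM MgCl2, pH 6.8) with 50 μM ATP, 0.6 mM EGTA and CaCl2 set for 50% or 75% activation. Steady-state ATPase inhibition followed by PK/LDH-coupled NADH oxidation at 340 nm.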

Sequence of bovine cardiac myofibrils (full-length cardiac myosin ATPase in the native sarcomere) (Q9BE39 whole entry): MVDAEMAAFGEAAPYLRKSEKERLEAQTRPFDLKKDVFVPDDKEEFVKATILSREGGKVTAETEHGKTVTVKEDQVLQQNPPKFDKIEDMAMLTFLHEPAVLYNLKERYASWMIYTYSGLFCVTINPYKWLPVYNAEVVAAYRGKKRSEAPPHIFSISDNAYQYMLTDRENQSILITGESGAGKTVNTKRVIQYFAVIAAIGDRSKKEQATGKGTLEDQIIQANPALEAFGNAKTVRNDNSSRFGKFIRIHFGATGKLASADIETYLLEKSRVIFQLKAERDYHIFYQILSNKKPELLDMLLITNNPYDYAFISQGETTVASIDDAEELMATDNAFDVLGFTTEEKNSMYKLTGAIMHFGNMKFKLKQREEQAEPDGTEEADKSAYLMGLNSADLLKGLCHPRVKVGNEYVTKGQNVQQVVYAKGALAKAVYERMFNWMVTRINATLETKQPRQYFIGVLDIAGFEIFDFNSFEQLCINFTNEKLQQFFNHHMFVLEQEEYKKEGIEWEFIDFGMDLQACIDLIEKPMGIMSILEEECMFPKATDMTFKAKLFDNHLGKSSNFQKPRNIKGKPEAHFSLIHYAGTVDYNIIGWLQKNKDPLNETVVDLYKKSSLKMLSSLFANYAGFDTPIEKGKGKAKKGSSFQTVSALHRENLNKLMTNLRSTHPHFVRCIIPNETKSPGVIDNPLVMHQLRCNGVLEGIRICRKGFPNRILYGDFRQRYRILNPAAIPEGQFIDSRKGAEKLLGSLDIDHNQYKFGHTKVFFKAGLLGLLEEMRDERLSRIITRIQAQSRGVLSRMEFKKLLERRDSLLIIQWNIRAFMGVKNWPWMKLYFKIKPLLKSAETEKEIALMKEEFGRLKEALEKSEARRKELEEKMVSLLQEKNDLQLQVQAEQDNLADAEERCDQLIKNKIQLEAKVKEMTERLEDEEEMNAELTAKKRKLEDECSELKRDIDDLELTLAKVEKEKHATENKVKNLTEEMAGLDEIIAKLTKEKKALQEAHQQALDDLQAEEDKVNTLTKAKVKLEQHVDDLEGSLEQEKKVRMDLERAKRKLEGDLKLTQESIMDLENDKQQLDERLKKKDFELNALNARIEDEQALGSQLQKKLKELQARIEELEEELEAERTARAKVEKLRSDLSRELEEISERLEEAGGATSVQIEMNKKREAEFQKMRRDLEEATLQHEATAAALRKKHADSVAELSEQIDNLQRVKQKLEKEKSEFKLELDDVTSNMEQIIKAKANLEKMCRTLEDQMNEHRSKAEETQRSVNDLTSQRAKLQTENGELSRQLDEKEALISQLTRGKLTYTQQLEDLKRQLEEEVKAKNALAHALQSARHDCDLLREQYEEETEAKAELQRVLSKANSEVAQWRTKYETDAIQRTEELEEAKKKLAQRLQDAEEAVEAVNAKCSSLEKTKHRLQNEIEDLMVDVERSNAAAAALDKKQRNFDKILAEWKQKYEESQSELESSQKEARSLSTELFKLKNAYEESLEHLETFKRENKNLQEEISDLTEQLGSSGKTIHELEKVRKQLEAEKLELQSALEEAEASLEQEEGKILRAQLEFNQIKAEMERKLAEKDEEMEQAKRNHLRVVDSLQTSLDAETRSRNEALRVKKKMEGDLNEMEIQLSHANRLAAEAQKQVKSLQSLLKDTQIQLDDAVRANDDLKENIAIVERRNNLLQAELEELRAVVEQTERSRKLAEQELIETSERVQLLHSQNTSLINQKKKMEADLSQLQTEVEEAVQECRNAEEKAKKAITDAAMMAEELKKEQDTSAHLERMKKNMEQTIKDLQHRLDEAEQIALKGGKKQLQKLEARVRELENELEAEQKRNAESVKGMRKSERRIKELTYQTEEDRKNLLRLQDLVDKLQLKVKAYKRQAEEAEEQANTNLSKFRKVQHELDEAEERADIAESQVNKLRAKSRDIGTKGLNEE
Sequence of bovine cardiac myofibrils (full-length cardiac myosin ATPase in the native sarcomere) (P85100 whole entry partner): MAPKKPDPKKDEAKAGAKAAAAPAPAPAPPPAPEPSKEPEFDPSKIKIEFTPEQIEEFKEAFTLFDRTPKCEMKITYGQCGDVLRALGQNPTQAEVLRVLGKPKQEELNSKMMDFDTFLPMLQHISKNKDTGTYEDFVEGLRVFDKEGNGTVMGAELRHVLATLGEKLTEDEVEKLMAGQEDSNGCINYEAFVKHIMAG
Sequence of bovine cardiac myofibrils (full-length cardiac myosin ATPase in the native sarcomere) (Q3SZE5 whole entry partner): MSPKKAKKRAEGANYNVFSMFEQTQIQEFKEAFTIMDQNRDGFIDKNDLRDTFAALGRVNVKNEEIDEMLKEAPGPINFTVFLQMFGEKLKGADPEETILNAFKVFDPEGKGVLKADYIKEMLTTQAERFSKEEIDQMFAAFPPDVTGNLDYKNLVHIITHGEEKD

Row | Compound | CDMF75 IC15 [nM] | pIC50
1 | CCc1nc(-c2ccc3c(c2)CC[C@H]3NC(=O)c2ncc(C)o2)no1 [Compound 636, (R)-N-(5-(5-ethyl-1,2,4-oxadiazol-3-yl)-2,3-dihydro-1H-inden-1-yl)-5-methyloxazole-2-carboxamide] | 600 | 5.66
2 | CCc1nc(-c2ccc3c(c2)CC[C@H]3NC(=O)c2ccnnc2C)no1 [Compound 637, (R)-N-(5-(5-ethyl-1,2,4-oxadiazol-3-yl)-2,3-dihydro-1H-inden-1-yl)-3-methylpyridazine-4-carboxamide] | 3100 | 4.94
3 | CCc1nc(-c2ccc3c(c2)CC[C@H]3NC(=O)c2cnc(O)o2)no1 [Compound 638, (R)-N-(5-(5-ethyl-1,2,4-oxadiazol-3-yl)-2,3-dihydro-1H-inden-1-yl)-2-hydroxyoxazole-5-carboxamide] | 1000 | 5.41
4 | CCc1nc(-c2ccc3c(c2)CC[C@H]3NC(=O)c2ocnc2C(F)(F)F)no1 [Compound 639, (R)-N-(5-(5-ethyl-1,2,4-oxadiazol-3-yl)-2,3-dihydro-1H-inden-1-yl)-4-(trifluoromethyl)oxazole-5-carboxamide] | 300 | 5.96
5 | CCc1nc(-c2ccc3c(c2)CC[C@H]3NC(=O)c2ncc(C)s2)no1 [Compound 640, (R)-N-(5-(5-ethyl-1,2,4-oxadiazol-3-yl)-2,3-dihydro-1H-inden-1-yl)-5-methylthiazole-2-carboxamide] | 500 | 5.68
6 | CCc1nc(-c2ccc3c(c2)CC[C@H]3NC(=O)c2ccc(=O)n(CC)c2)no1 [Compound 641, (R)-1-ethyl-N-(5-(5-ethyl-1,2,4-oxadiazol-3-yl)-2,3-dihydro-1H-inden-1-yl)-6-oxo-1,6-dihydropyridine-3-carboxamide] | 1400 | 5.24
7 | CCc1nc(-c2ccc3c(c2)CC[C@H]3NC(=O)c2ccc(C)cn2)no1 [Compound 642, (R)-N-(5-(5-ethyl-1,2,4-oxadiazol-3-yl)-2,3-dihydro-1H-inden-1-yl)-5-methylpicolinamide] | 1400 | 5.24
8 | CCc1nc(-c2ccc3c(c2)CC[C@H]3NC(=O)c2ncncc2C)no1 [Compound 643, (R)-N-(5-(5-ethyl-1,2,4-oxadiazol-3-yl)-2,3-dihydro-1H-inden-1-yl)-5-methylpyrimidine-4-carboxamide] | 600 | 5.68
9 | Cn1cc(C(=O)N[C@@H]2CCc3cc(-c4noc(C(F)F)n4)ccc32)ccc1=O [Compound 644, (R)-N-(5-(5-(difluoromethyl)-1,2,4-oxadiazol-3-yl)-2,3-dihydro-1H-inden-1-yl)-1-methyl-6-oxo-1,6-dihydropyridine-3-carboxamide] | 1500 | 5.23
10 | Cn1cc(C(=O)N[C@@H]2CCc3cc(-c4noc(C5CCC5)n4)ccc32)ccc1=O [Compound 645, (R)-N-(5-(5-cyclobutyl-1,2,4-oxadiazol-3-yl)-2,3-dihydro-1H-inden-1-yl)-1-methyl-6-oxo-1,6-dihydropyridine-3-carboxamide] | 1600 | 5.15
11 | [2H]C([2H])([2H])c1nc(-c2ccc3c(c2)CC[C@H]3NC(=O)c2ccc(=O)n(C)c2)no1 [Compound 646, (R)-1-methyl-N-(5-(5-(methyl-d3)-1,2,4-oxadiazol-3-yl)-2,3-dihydro-1H-inden-1-yl)-6-oxo-1,6-dihydropyridine-3-carboxamide] | 2200 | 5.05
12 | CCc1nc(-c2ccc3c(c2)CC[C@H]3NC(=O)c2ccnc(Cl)c2)no1 [Compound 647, (R)-2-chloro-N-(5-(5-ethyl-1,2,4-oxadiazol-3-yl)-2,3-dihydro-1H-inden-1-yl)isonicotinamide] | 300 | 6.05
13 | CCc1nc(-c2ccc3c(c2)CC[C@H]3NC(=O)c2cccc(C(=O)OC)c2)no1 [Compound 648, Methyl (R)-3-((5-(5-ethyl-1,2,4-oxadiazol-3-yl)-2,3-dihydro-1H-inden-1-yl)carbamoyl)benzoate] | 400 | 5.89
14 | CCc1nc(-c2ccc3c(c2)CC[C@H]3NC(=O)c2cc(CO)ccc2F)no1 [Compound 649, (R)-N-(5-(5-ethyl-1,2,4-oxadiazol-3-yl)-2,3-dihydro-1H-inden-1-yl)-2-fluoro-5-(hydroxymethyl)benzamide] | 900 | 5.47
15 | CCc1nc(-c2ccc3c(c2)CC[C@H]3NC(=O)c2cnnc(C)c2)no1 [Compound 650, (R)-N-(5-(5-ethyl-1,2,4-oxadiazol-3-yl)-2,3-dihydro-1H-inden-1-yl)-6-methylpyridazine-4-carboxamide] | 600 | 5.66
16 | CCc1nc(-c2ccc3c(c2)CC[C@H]3NC(=O)c2cc(CO)ccc2C)no1 [Compound 651, (R)-N-(5-(5-ethyl-1,2,4-oxadiazol-3-yl)-2,3-dihydro-1H-inden-1-yl)-5-(hydroxymethyl)-2-methylbenzamide] | 4600 | 4.65

Row | Compound | CDMF75 IC15 [nM] | pIC50
17 | CCc1nc(-c2ccc3c(c2)CC[C@H]3NC(=O)c2cc(CO)ccn2)no1 [Compound 652, (R)-N-(5-(5-ethyl-1,2,4-oxadiazol-3-yl)-2,3-dihydro-1H-inden-1-yl)-4-(hydroxymethyl)picolinamide] | 500 | 5.82
18 | CCc1nc(-c2ccc3c(c2)CC[C@H]3NC(=O)c2cccc(CO)c2)no1 [Compound 653, (R)-N-(5-(5-ethyl-1,2,4-oxadiazol-3-yl)-2,3-dihydro-1H-inden-1-yl)-3-(hydroxymethyl)benzamide] | 200 | 6.15
19 | CCc1nc(-c2ccc3c(c2)CC[C@H]3NC(=O)c2cccc(CO)c2F)no1 [Compound 654, (R)-N-(5-(5-ethyl-1,2,4-oxadiazol-3-yl)-2,3-dihydro-1H-inden-1-yl)-2-fluoro-3-(hydroxymethyl)benzamide] | 600 | 5.66
20 | C=Cc1cc(C(=O)N[C@@H]2CCc3cc(-c4noc(CC)n4)ccc32)ccn1 [Compound 655, (R)-N-(5-(5-ethyl-1,2,4-oxadiazol-3-yl)-2,3-dihydro-1H-inden-1-yl)-2-vinylisonicotinamide] | 600 | 5.72
21 | O=C(N[C@@H]1CCc2cc(-c3noc(C(F)F)n3)ccc21)c1ccc(=O)n(CCO)c1 [Compound 656, (R)-N-(5-(5-(difluoromethyl)-1,2,4-oxadiazol-3-yl)-2,3-dihydro-1H-inden-1-yl)-1-(2-hydroxyethyl)-6-oxo-1,6-dihydropyridine-3-carboxamide] | 1900 | 5.09
22 | C=Cc1cccc(C(=O)N[C@@H]2CCc3cc(-c4noc(CC)n4)ccc32)c1 [Compound 657, (R)-N-(5-(5-ethyl-1,2,4-oxadiazol-3-yl)-2,3-dihydro-1H-inden-1-yl)-3-vinylbenzamide] | 300 | 6.15
23 | CCc1nc(-c2ccc3c(c2)CC[C@H]3NC(=O)c2cccc(C=O)c2)no1 [Compound 658, (R)-N-(5-(5-ethyl-1,2,4-oxadiazol-3-yl)-2,3-dihydro-1H-inden-1-yl)-3-formylbenzamide] | 300 | 6.05
24 | CCc1nc(-c2ccc3c(c2)CC[C@H]3NC(=O)c2cccc(CCO)c2)no1 [Compound 659, (R)-N-(5-(5-ethyl-1,2,4-oxadiazol-3-yl)-2,3-dihydro-1H-inden-1-yl)-3-(2-hydroxyethyl)benzamide] | 500 | 5.77
25 | CCc1cc(C(=O)N[C@@H]2CCc3cc(-c4noc(CC)n4)ccc32)ccn1 [Compound 660, (R)-2-ethyl-N-(5-(5-ethyl-1,2,4-oxadiazol-3-yl)-2,3-dihydro-1H-inden-1-yl)isonicotinamide] | 600 | 5.70
26 | O=C(N[C@@H]1CCc2cc(-c3noc(C(F)F)n3)ccc21)c1cccc(CO)c1 [Compound 661, (R)-N-(5-(5-(difluoromethyl)-1,2,4-oxadiazol-3-yl)-2,3-dihydro-1H-inden-1-yl)-3-(hydroxymethyl)benzamide] | 300 | 5.96
27 | O=C(N[C@@H]1CCc2cc(-c3noc(C(F)F)n3)ccc21)c1cccc(CO)c1F [Compound 662, (R)-N-(5-(5-(difluoromethyl)-1,2,4-oxadiazol-3-yl)-2,3-dihydro-1H-inden-1-yl)-2-fluoro-3-(hydroxymethyl)benzamide] | 1600 | 5.14
28 | O=C(N[C@@H]1CCc2cc(-c3noc(C(F)F)n3)ccc21)c1cc(CO)ccc1F [Compound 663, (R)-N-(5-(5-(difluoromethyl)-1,2,4-oxadiazol-3-yl)-2,3-dihydro-1H-inden-1-yl)-2-fluoro-5-(hydroxymethyl)benzamide] | 2300 | 4.71
29 | O=C(N[C@@H]1CCc2cc(-c3noc(C(F)F)n3)ccc21)c1ccnc(CO)c1 [Compound 665, (R)-N-(5-(5-(difluoromethyl)-1,2,4-oxadiazol-3-yl)-2,3-dihydro-1H-inden-1-yl)-2-(hydroxymethyl)isonicotinamide] | 400 | 5.74
30 | O=C(N[C@@H]1CCc2cc(-c3noc(C(F)F)n3)ccc21)c1cc(CO)ccn1 [Compound 666, (R)-N-(5-(5-(difluoromethyl)-1,2,4-oxadiazol-3-yl)-2,3-dihydro-1H-inden-1-yl)-4-(hydroxymethyl)picolinamide] | 800 | 5.47
31 | O=C(N[C@@H]1CCc2cc(-c3noc(C(F)F)n3)ccc21)c1cc(CO)ccn1 [Compound 667, (R)-N-(5-(5-(difluoromethyl)-1,2,4-oxadiazol-3-yl)-2,3-dihydro-1H-inden-1-yl)-4-(hydroxymethyl)picolinamide] | 900 | 5.43
